# Literature values as cited in US12102628B2, “Composition and methods for the treatment of myopia” (Seinda Pharmaceutical Guangzhou Corporation, priority 2017, dated 2024).
# Like-named read-outs stand apart in the source and are kept apart here.
# Experiments:
# M3 receptor = M3 receptor (Homo sapiens, UniProt P20309); conditions: M3 receptor-selective antagonists
# [1] = not given; remark: listed apart in the source
# myopic children = conditions: for Myopia progression: myopic children
# [2] = ophthalmic use, concentrations per Table 2
# Chain of M3 receptor (P20309 whole entry): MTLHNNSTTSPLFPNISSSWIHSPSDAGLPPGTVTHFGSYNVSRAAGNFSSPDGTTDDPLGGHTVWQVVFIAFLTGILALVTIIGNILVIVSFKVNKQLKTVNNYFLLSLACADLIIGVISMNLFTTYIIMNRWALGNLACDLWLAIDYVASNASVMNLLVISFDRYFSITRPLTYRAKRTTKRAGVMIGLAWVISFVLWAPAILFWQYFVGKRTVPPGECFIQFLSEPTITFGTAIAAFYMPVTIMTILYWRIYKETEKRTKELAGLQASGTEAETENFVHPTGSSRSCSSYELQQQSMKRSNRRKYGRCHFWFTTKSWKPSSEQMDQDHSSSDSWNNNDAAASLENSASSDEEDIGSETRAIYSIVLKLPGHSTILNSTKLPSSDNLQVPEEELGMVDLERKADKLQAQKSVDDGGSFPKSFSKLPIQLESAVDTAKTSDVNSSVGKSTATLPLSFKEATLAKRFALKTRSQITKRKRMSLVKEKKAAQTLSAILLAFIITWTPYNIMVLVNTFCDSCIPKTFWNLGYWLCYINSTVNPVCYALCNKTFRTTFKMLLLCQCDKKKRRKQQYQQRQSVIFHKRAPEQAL
compound,measurement,setting,value
c1ccc(C(O[C@@H]2CCCN(CCc3ccc4c(c3)OCO4)C2)c2ccccc2)cc1 [Zamifenacin],Aqueous Solubility,,20 µg/mL
same,Affinity (pKi),M3 receptor,9.3
same,logP,[1],4.4
Tiotropium,Aqueous Solubility,,25000 µg/mL
NC(=O)C(c1ccccc1)(c1ccccc1)[C@@H]1CCN(CCc2ccc3c(c2)CCO3)C1 [Darifenacin],Aqueous Solubility,,6030 µg/mL
same,logP,[1],4.5
"CN1[C@@H]2CC[C@H]1C[C@@H](OC(=O)C(CO)c1ccccc1)C2 (stereo partly drawn) [Atropine, atropine]",Effect on myopia progression (in words),myopic children; 0.5% atropine solution,effectively slow the myopia progression
same,Myopia progression,myopic children; atropine concentration 0.1%,0.47 diopter/yr
same,Myopia progression,myopic children; atropine concentration 0.25%,0.45 diopter/yr
same,Myopia progression,myopic children; atropine concentration 0.5%,0.04 diopter/yr
same,Acting Duration,[2],7 to 14 days
same,Pupil dilation diameter,"pupil; 0.05% atropine solution, control group 2.93 mm",5.52 mm
same,Photophobia ratio,pupil; low concentration atropine group,about 66.67%
CN1CCN(CC(=O)N2c3ccccc3C(=O)Nc3cccnc32)CC1 [Pirenzepine],Acting Duration,[2],<1 days
CN(C)CCOC(=O)C(c1ccccc1)C1(O)CCCC1 (stereo not drawn) [Cyclopentolate],Acting Duration,[2],4 days
